Reference: patent US10336760B2, “Inhibitors of cyclin-dependent kinase 7 (CDK7)” (SYROS PHARMACEUTICALS, INC., priority 2014, dated 2019)
Where two headings read alike, the source gives them in different places.

What was measured:
[1] = molecular target: T1, CDK7 (Homo sapiens, UniProt P50613); assay: CDK7 kinase activity, Adapta kinase assay (Life Technologies); type: biochemical; conditions: read-out: CDK7 Inhibition (IC50); also: concentrations from 10 µM down to 0.514 nM
T1 construct: purchased Life Technologies (Grand Island, N.Y.), Adapta kinase assay service
T1 sequence (P50613 whole entry): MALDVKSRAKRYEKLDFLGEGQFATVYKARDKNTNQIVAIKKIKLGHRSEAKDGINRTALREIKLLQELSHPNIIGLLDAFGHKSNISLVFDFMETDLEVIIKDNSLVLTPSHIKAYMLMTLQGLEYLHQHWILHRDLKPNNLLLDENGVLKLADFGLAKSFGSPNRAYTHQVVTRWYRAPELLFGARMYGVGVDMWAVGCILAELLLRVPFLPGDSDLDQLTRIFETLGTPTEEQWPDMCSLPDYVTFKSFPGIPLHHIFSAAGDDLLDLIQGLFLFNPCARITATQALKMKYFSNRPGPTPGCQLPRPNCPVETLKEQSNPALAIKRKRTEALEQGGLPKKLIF
T1 sequence (P51946 whole entry partner): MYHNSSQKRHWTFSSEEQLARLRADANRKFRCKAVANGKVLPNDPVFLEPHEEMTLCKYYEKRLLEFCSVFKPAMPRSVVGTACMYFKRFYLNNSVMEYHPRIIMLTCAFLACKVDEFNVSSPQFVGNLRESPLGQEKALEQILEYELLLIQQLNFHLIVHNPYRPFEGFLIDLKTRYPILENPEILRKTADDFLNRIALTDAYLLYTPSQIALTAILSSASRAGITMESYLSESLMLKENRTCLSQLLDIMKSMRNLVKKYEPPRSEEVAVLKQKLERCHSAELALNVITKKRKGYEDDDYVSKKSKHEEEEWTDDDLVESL
T1 sequence (P51948 whole entry partner): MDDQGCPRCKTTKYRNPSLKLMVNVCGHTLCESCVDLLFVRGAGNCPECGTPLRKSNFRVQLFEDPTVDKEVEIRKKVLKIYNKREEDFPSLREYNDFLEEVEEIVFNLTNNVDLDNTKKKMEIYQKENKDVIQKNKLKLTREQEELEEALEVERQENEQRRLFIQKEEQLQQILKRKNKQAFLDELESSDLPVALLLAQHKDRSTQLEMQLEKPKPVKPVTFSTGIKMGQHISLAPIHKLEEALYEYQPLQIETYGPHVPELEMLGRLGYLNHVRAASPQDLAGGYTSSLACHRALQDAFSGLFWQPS
Procedure: Compounds of the invention were assayed for CDK7 activity at Life Technologies (Grand Island, N.Y.) using their commercially available Adapta® kinase assay services. […] Details of this assay, including substrates used, are available on the Life Technologies web site (http://www.lifetechnologies.com/us/en/home/life-science/drug-discovery/target-and-lead-identification-and-validation/kinasebiology/kinase-activity-assays.html).

[2] = system: A673 cells; assay: Inhibition of A673 cell proliferation (CyQUANT); type: cell-based; conditions: Homo sapiens, read-out: A673 IC50
Procedure: Representative compounds of the invention were tested at different concentrations (from 4 μM to 126.4 pM; 0.5 log serial dilutions) for their ability to inhibit the proliferation of A673 cells. Known CDK inhibitors flavopiridol and triptolide were used as positive controls. Cells were grown in Dulbecco's Modified Eagle's Medium, +10% FBS+1 mM Sodium Pyruvate. The cells were cultured at 37° C. in a humidified chamber in the presence of 5% CO2. Proliferation assays were conducted over a 72 hour time period. CyQUANT® (Life Technologies, Chicago, Ill. USA) was used to assess the anti-proliferative effects of the compounds following manufacturer's directions and utilizing the reagents supplied with the CyQUANT® kit.

[3] = A673 cells, 72 hour proliferation, CyQUANT, 4 μM to 126.4 pM, 0.5 log serial dilutions

For `CC(C)c1cnn2c(NC3CCN(C(=O)c4ccc(NC(=O)/C=C/CN(C)C)cc4)CC3)nc(OC3CCN(C)CC3)nc12` [Compound 102, (E)-4-(Dimethylamino)-N-(4-(4-((8-isopropyl-2-((1-methylpiperidin-4-yl)oxy)pyrazolo[1,5-a][1,3,5]triazin-4-yl)amino)piperidine-1-carbonyl)phenyl)but-2-enamide], the IC50 [1] was > 1000 nM and the IC50 [2, 3] was 500 to 5000 nM.
Work on `CC(C)c1cnn2c(NCc3ccccc3NC(=O)c3ccc(NC(=O)/C=C/CN(C)C)cc3)nc(OC3CCN(C)CC3)nc12` [Compound 103, (E)-4-(4-(dimethylamino)but-2-enamido)-N-(2-(((8-isopropyl-2-((1-methylpiperidin-4-yl)oxy)pyrazolo[1,5-a][1,3,5]triazin-4-yl)amino)methyl)phenyl)benzamide] yielded an IC50 [1] of 100 to 1000 nM and an IC50 [2, 3] of 500 to 5000 nM.
With `CC(C)c1cnn2c(NCc3ccccc3NCc3ccc(NC(=O)/C=C/CN(C)C)cc3)nc(OC3CCN(C)CC3)nc12` [Compound 104, (E)-4-(dimethylamino)-N-(4-(((2-(((8-isopropyl-2-((1-methylpiperidin-4-yl)oxy)pyrazolo[1,5-a][1,3,5]triazin-4-yl)amino)methyl)phenyl)amino)methyl)phenyl)but-2-enamide] the IC50 [1] was < 100 nM and the IC50 [2, 3] was < 500 nM.
`CC(C)c1cnn2c(NCc3ccccc3N3CCN(C(=O)/C=C/CN(C)C)CC3)nc(OC3CCN(C)CC3)nc12` [Compound 105, (E)-4-(Dimethylamino)-1-(4-(2-(((8-isopropyl-2-((1-methylpiperidin-4-yl)oxy)pyrazolo[1,5-a][1,3,5]triazin-4-yl)amino)methyl)phenyl)piperazin-1-yl)but-2-en-1-one] was tested, and the IC50 [1] was < 100 nM and the IC50 [2, 3] was < 500 nM.
With `C=CC(=O)Nc1cccc(C(=O)N2CCC(C(=O)Nc3ncc(SCc4ncc(C(C)(C)C)o4)s3)CC2)c1` [Compound 117, 1-(3-Acrylamidobenzoyl)-N-(5-(((5-(tert-butyl)oxazol-2-yl)methyl)thio)thiazol-2-yl)piperidine-4-carboxamide] the IC50 [2, 3] was < 500 nM.
With `C=CC(=O)Nc1cccc(CN2CCC(C(=O)Nc3ncc(SCc4ncc(C(C)(C)C)o4)s3)CC2)c1` [Compound 118, 1-(3-Acrylamidobenzyl)-N-(5-(((5-(tert-butyl)oxazol-2-yl)methyl)thio)thiazol-2-yl)piperidine-4-carboxamide] the IC50 [1] was 100 to 1000 nM and the IC50 ([2]; A673, 72 h) was < 500 nM.
With `C=CC(=O)Nc1ccc(CN2CCC(C(=O)Nc3ncc(SCc4ncc(C(C)(C)C)o4)s3)CC2)cc1` [Compound 119, 1-(4-Acrylamidobenzyl)-N-(5-(((5-(tert-butyl)oxazol-2-yl)methyl)thio)thiazol-2-yl)piperidine-4-carboxamide] the IC50 [1] was 100 to 1000 nM and the IC50 ([2]; A673, 72 h) was < 500 nM.
In the case of `C=CC(=O)N1CCC(CN2CCC(C(=O)Nc3ncc(SCc4ncc(C(C)(C)C)o4)s3)CC2)CC1` [Compound 120, 1-((1-Acryloylpiperidin-4-yl)methyl)-N-(5-(((5-(tert-butyl)oxazol-2-yl)methyl)thio)thiazol-2-yl)piperidine-4-carboxamide], the IC50 [1] is reported as > 1000 nM and the IC50 ([2]; A673, 72 h) is reported as < 500 nM.
With `C=CC(=O)Nc1cccc(C(C)N2CCC(C(=O)Nc3ncc(SCc4ncc(C(C)(C)C)o4)s3)CC2)c1` (centres unmarked) [Compound 121, 1-(1-(3-Acrylamidophenyl)ethyl)-N-(5-(((5-(tert-butyl)oxazol-2-yl)methyl)thio)thiazol-2-yl)piperidine-4-carboxamide] the IC50 [1] was 100 to 1000 nM and the IC50 ([2]; A673, 72 h) was < 500 nM.
With `C=CC(=O)Nc1ccc(C(=O)N2CCC(C(=O)Nc3ncc(SCc4ncc(C(C)(C)C)o4)s3)CC2)cc1` [Compound 122, 1-(4-Acrylamidobenzoyl)-N-(5-(((5-(tert-butyl)oxazol-2-yl)methyl)thio)thiazol-2-yl)piperidine-4-carboxamide] the IC50 [2, 3] was < 500 nM.
With `C=CC(=O)N1CCC(C(=O)N2CCC(C(=O)Nc3ncc(SCc4ncc(C(C)(C)C)o4)s3)CC2)CC1` [Compound 123, 1-(1-Acryloylpiperidine-4-carbonyl)-N-(5-(((5-(tert-butyl)oxazol-2-yl)methyl)thio)thiazol-2-yl)piperidine-4-carboxamide] the IC50 [2, 3] was < 500 nM.
`C=CC(=O)N1CCCC(CN2CCC(C(=O)Nc3ncc(SCc4ncc(C(C)(C)C)o4)s3)CC2)C1` (centres unmarked) [Compound 125, 1-((1-Acryloylpiperidin-3-yl)methyl)-N-(5-(((5-(tert-butyl)oxazol-2-yl)methyl)thio)thiazol-2-yl)piperidine-4-carboxamide] was tested, and the IC50 [1] was 100 to 1000 nM and the IC50 ([2]; A673, 72 h) was < 500 nM.
`CN(C)C/C=C/C(=O)Nc1cccc(CN2CCC(C(=O)Nc3ncc(SCc4ncc(C(C)(C)C)o4)s3)CC2)c1` [Compound 127, (E)-N-(5-(((5-(tert-butyl)oxazol-2-yl)methyl)thio)thiazol-2-yl)-1-(3-(4-(dimethylamino)but-2-enamido)benzyl)piperidine-4-carboxamide] was tested, and the IC50 [1] was 100 to 1000 nM and the IC50 [2, 3] was < 500 nM.
